Test results taken from EPA's ToxRefDB 2.

Tests used:
rat [1] = conditions: Multigenerational reproductive toxicity study, sprague dawley, Oral, Feed, dose end: 2 generation
rat [2] = conditions: Combined chronic toxicity/carcinogenicity, fischer, Oral, Feed, dose end: 24 month
mouse [3] = conditions: Carcinogenicity, cd1, Oral, Feed, dose end: 87 week, group: systemic
rabbit = conditions: Prenatal developmental toxicity study, chinchilla, Oral, Gavage/Intubation, dose end: 18 GD
rat [4] = conditions: Combined chronic toxicity/carcinogenicity, sprague dawley, Oral, Feed, dose end: 24 month, group: systemic
rat [5] = conditions: Chronic toxicity, Sprague-Dawley, Oral, Feed, dose end: 104 week, group: systemic
dog [6] = conditions: Subchronic oral toxicity in nonrodent, beagle, Feed, dose end: 26 week, group: systemic, systemic / in life observation / clinical signs / chewing of extremities + systemic / in life observation / clinical signs / muscle …
mouse [7] = conditions: Combined chronic toxicity/carcinogenicity, other, Oral, Feed, dose end: 91 week, group: systemic
mouse [8] = conditions: Combined chronic toxicity/carcinogenicity, cd1, Oral, Feed, dose end: 78 week, group: systemic
dog [9] = conditions: Chronic toxicity, beagle, Oral, Feed, dose end: 52 week, group: systemic
rat [10] = conditions: Combined chronic toxicity/carcinogenicity; sprague dawley; Oral; Feed; dose end: 24 month; group: systemic; systemic / in life observation / clinical signs / urine staining - perineum
[11] = group: cholinesterase, cholinesterase / cholinesterase / cholinesterase / plasma cholinesterase (che)
[12] = group: offspring, developmental / offspring survival late / lactation index / lactation index
[13] = group: offspring, developmental / offspring survival late / lactation index / lactation index + systemic / in life observation / body weight / offspring (pup…
[14] = group: parental, systemic / in life observation / body weight / body weight
[15] = group: parental, systemic / organ weight / ovary / relative to body weight
[16] = group: cholinesterase, cholinesterase / cholinesterase / cholinesterase / brain cholinesterase (che) + cholinesterase / cholinesterase / cholinesterase / …
[17] = group: systemic, systemic / hematology / mean corpuscular (cell) volume (mcv) / mean corpuscular (cell) volume (mcv) + systemic / in life observation / body …
[18] = systemic / organ weight / brain / absolute
[19] = systemic / organ weight / brain / absolute + systemic / in life observation / body weight / body weight + systemic / in life observation / …
[20] = group: developmental, developmental / developmental malformation / bone / absent + developmental / developmental malformation / bone / fused + developmental / …
[21] = group: maternal, systemic / in life observation / body weight / body weight gain + systemic / in life observation / clinical signs / ataxia + systemic / in …
[22] = systemic / in life observation / body weight / body weight
[23] = systemic / in life observation / body weight / body weight + systemic / clinical chemistry / alpha-2 globulin / alpha-2 globulin + systemic…
[24] = systemic / in life observation / body weight / body weight + systemic / organ weight / brain / relative to body weight + systemic / organ …
[25] = systemic / pathology microscopic / liver / granuloma + systemic / pathology microscopic / lymph node / granuloma + systemic / clinical …
[26] = systemic / pathology microscopic / liver / granuloma + systemic / pathology microscopic / lymph node / granuloma + systemic / hematology / …
[27] = systemic / in life observation / body weight / body weight gain + systemic / in life observation / body weight / body weight + systemic / …
[28] = systemic / clinical chemistry / alanine aminotransferase (alt/sgpt) / alanine aminotransferase (alt/sgpt) + systemic / clinical chemistry / …
[29] = systemic / organ weight / liver / absolute

For CCOP(=O)(NC(C)C)Oc1ccc(SC)c(C)c1 (stereo not given) [Fenamiphos], which LEL (rat [1]; [11]) is on record?
The LEL was 0.19 mg/kg/day.

And the LOAEL (rat [1]; [11])?
The LOAEL was 0.19 mg/kg/day.

What about the NEL (rat [1]; [11]) of the same compound?
Its NEL is less than 0.19 mg/kg/day.

What about the NOAEL (rat [1]; [11]) of the same compound?
The NOAEL was less than 0.19 mg/kg/day.

What about the LEL (rat [1]; [12]) of the same compound?
Its LEL is 0.65 mg/kg/day.

And the LOAEL (rat [1]; [12])?
The LOAEL was 0.65 mg/kg/day.

What about the NEL (rat [1]; [13]) of the same compound?
The NEL was 0.17 mg/kg/day.

And the NOAEL (rat [1]; [13])?
Its NOAEL is 0.17 mg/kg/day.

And the LOAEL (rat [1]; [14])?
Its LOAEL is greater than 2.94 mg/kg/day.

And the NOAEL (rat [1]; [14])?
Its NOAEL is no less than 2.94 mg/kg/day.

What about the LEL (rat [1]; [15]) of the same compound?
Its LEL is 0.2 mg/kg/day.

And the NEL (rat [1]; [15])?
Its NEL is less than 0.2 mg/kg/day.

And the LEL (rat [2]; [16])?
The LEL was 0.098 mg/kg/day.

What about the LOAEL (rat [2]; [16]) of the same compound?
Its LOAEL is 0.098 mg/kg/day.

What about the NEL (rat [2]; [16]) of the same compound?
Its NEL is less than 0.098 mg/kg/day.

And the NOAEL (rat [2]; [16])?
Its NOAEL is less than 0.098 mg/kg/day.

What about the LEL (rat [2]; [17]) of the same compound?
The LEL was 2.45 mg/kg/day.

What about the LOAEL (rat [2]; [17]) of the same compound?
The LOAEL was greater than 2.45 mg/kg/day.

And the NEL (rat [2]; [17])?
The NEL was 0.464 mg/kg/day.

What about the NOAEL (rat [2]; [17]) of the same compound?
Its NOAEL is no less than 2.45 mg/kg/day.

And the LEL (mouse [3]; [18])?
The LEL was 0.3 mg/kg/day.

And the NEL (mouse [3]; [18])?
Its NEL is less than 0.3 mg/kg/day.

What about the LOAEL (mouse [3]; [19]) of the same compound?
The LOAEL was greater than 7.5 mg/kg/day.

What about the NOAEL (mouse [3]; [19]) of the same compound?
Its NOAEL is no less than 7.5 mg/kg/day.

What about the LEL (rabbit; [20]) of the same compound?
Its LEL is 2.5 mg/kg/day.

What about the LOAEL (rabbit; [20]) of the same compound?
Its LOAEL is 2.5 mg/kg/day.

And the NEL (rabbit; [20])?
The NEL was 0.5 mg/kg/day.

And the NOAEL (rabbit; [20])?
Its NOAEL is 0.5 mg/kg/day.

What about the LEL (rabbit; [21]) of the same compound?
Its LEL is 2.5 mg/kg/day.

What about the LOAEL (rabbit; [21]) of the same compound?
The LOAEL was 2.5 mg/kg/day.

What about the NEL (rabbit; [21]) of the same compound?
Its NEL is 0.5 mg/kg/day.

What about the NOAEL (rabbit; [21]) of the same compound?
Its NOAEL is 0.5 mg/kg/day.

CC(C)[C@@H](C(=O)O[C@@H](C#N)c1cccc(Oc2ccccc2)c1)c1ccc(Cl)cc1 [Fenvalerate] was tested. Which LEL (rat [4]; [22]) did it give?
Its LEL is 1.25 mg/kg/day.

And the NEL (rat [4]; systemic / in life observation / body weight / body weight + systemic / clinical chemistry / alpha-2 globulin / alpha-2 globulin)?
The NEL was 0.25 mg/kg/day.

And the LOAEL (rat [4]; [23])?
The LOAEL was greater than 25 mg/kg/day.

And the NOAEL (rat [4]; [23])?
Its NOAEL is no less than 25 mg/kg/day.

And the LOAEL (rat [5]; [22])?
The LOAEL was 50 mg/kg/day.

And the NOAEL (rat [5]; [22])?
The NOAEL was less than 50 mg/kg/day.

And the LEL (rat [5]; [24])?
Its LEL is 50 mg/kg/day.

What about the NEL (rat [5]; [24]) of the same compound?
Its NEL is less than 50 mg/kg/day.

And the LEL (dog [6])?
The LEL was 6.25 mg/kg/day.

What about the LOAEL (dog [6]) of the same compound?
Its LOAEL is 6.25 mg/kg/day.

And the NEL (dog [6])?
The NEL was less than 6.25 mg/kg/day.

And the NOAEL (dog [6])?
The NOAEL was less than 6.25 mg/kg/day.

What about the NEL (mouse [7]; [25]) of the same compound?
Its NEL is 4.5 mg/kg/day.

What about the NOAEL (mouse [7]; [25]) of the same compound?
Its NOAEL is 4.5 mg/kg/day.

And the LEL (mouse [7]; [26])?
Its LEL is 15 mg/kg/day.

And the LOAEL (mouse [7]; [26])?
Its LOAEL is 15 mg/kg/day.

Which results are given for CC(C)C1(C)N=C(c2nc3ccccc3cc2C(=O)O)NC1=O (stereo not given) [Imazaquin]?
LOAEL (mouse [8]; systemic / in life observation / body weight / body weight gain): 600 mg/kg/day; LEL (mouse [8]; [27]): 600 mg/kg/day; NEL (mouse [8]; [27]): 150 mg/kg/day; NOAEL (mouse [8]; [27]): 150 mg/kg/day; LOAEL (dog [9]; [28]): 125 mg/kg/day; NOAEL (dog [9]; [28]): 25 mg/kg/day; LEL (dog [9]; [29]): 5 mg/kg/day; NEL (dog [9]; [29]): < 5 mg/kg/day; LEL (rat [10]): 500 mg/kg/day; LOAEL (rat [10]): > 500 mg/kg/day; NEL (rat [10]): 250 mg/kg/day; NOAEL (rat [10]): ≥ 500 mg/kg/day
